The NIST ThermoML archive (doi:10.1021/je060271a)

Conditions: 283.14 K, Liquid, Vibrating tube method

CCCCCCC(=O)OCC(COC(=O)CCCCCC)(COC(=O)CCCCCC)COC(=O)CCCCCC [pentaerythritol tetraheptanoate]
Conditions	mass density [kg/m3]
19935 kPa	997
19962 kPa	996.9
19984 kPa	996.9
20007 kPa	996.9
20034 kPa	997
20057 kPa	997
20081 kPa	997
20105 kPa	997
20133 kPa	997
20156 kPa	997
20179 kPa	997.1
20202 kPa	997
20230 kPa	997
20253 kPa	997.1
20282 kPa	997.1
20305 kPa	997
20328 kPa	997.1
20356 kPa	997.1
20380 kPa	997.1
20404 kPa	997.2
20428 kPa	997.2
20456 kPa	997.2
20480 kPa	997.2
20504 kPa	997.2
20533 kPa	997.2
20557 kPa	997.2
20586 kPa	997.3
20610 kPa	997.3
20634 kPa	997.3
20663 kPa	997.3
20688 kPa	997.3
20713 kPa	997.3
20742 kPa	997.2
20768 kPa	997.5
20792 kPa	997.5
20822 kPa	997.5
20846 kPa	997.4
20871 kPa	997.4
20896 kPa	997.4
20926 kPa	997.4
20951 kPa	997.4
20976 kPa	997.4
21007 kPa	997.6
21032 kPa	997.5
21062 kPa	997.5
21088 kPa	997.5
21114 kPa	997.6
21140 kPa	997.6
21171 kPa	997.6
21196 kPa	997.4
21222 kPa	997.6
21254 kPa	997.6
21279 kPa	997.6
21310 kPa	997.7
21336 kPa	997.5
21362 kPa	997.7
21393 kPa	997.6
21419 kPa	997.7
21446 kPa	997.7
21473 kPa	997.7
21505 kPa	997.7
21531 kPa	997.7
21558 kPa	997.6
21585 kPa	997.8
21617 kPa	997.6
21644 kPa	997.8
21671 kPa	997.9
21703 kPa	997.8
21730 kPa	997.9
21758 kPa	997.8
21790 kPa	997.9
21818 kPa	997.9
21846 kPa	997.9
21873 kPa	997.7
21906 kPa	998
21933 kPa	997.9
21961 kPa	998
21994 kPa	997.9
22022 kPa	997.9
22055 kPa	998
22083 kPa	998
22111 kPa	997.9
22139 kPa	998.1
22174 kPa	998.1
22199 kPa	998
22233 kPa	998.1
22261 kPa	998.2
22294 kPa	998.1
22323 kPa	998.1
22352 kPa	998.2
22381 kPa	998.2
22416 kPa	998.2
22444 kPa	998.2
22474 kPa	998.1
22509 kPa	998.2
22538 kPa	998.2
22569 kPa	998.2
22599 kPa	998.2
22628 kPa	998.3
22664 kPa	998.4
22694 kPa	998.3
22724 kPa	998.3
22760 kPa	998.4
22789 kPa	998.4
22819 kPa	998.3
22855 kPa	998.4
22886 kPa	998.5
22915 kPa	998.4
22952 kPa	998.5
22982 kPa	998.4
23012 kPa	998.5
23049 kPa	998.6
23079 kPa	998.5
23110 kPa	998.5
23147 kPa	998.6
23178 kPa	998.6
23209 kPa	998.6
23246 kPa	998.5
23277 kPa	998.7
23308 kPa	998.6
23339 kPa	998.7
23377 kPa	998.7
23410 kPa	998.6
23442 kPa	998.7
23480 kPa	998.8
23512 kPa	998.7
23543 kPa	998.7
23576 kPa	998.8
23614 kPa	998.8
23646 kPa	998.8
23685 kPa	998.8
23717 kPa	998.8
23749 kPa	998.9
23788 kPa	998.8
23821 kPa	998.9
23854 kPa	999
23888 kPa	998.9
23927 kPa	998.9
23960 kPa	998.9
23999 kPa	998.9
24032 kPa	998.9
24066 kPa	999.1
24099 kPa	998.9
24140 kPa	999.1
24173 kPa	999.1
24213 kPa	999
24247 kPa	999
24281 kPa	999.1
24324 kPa	999.2
24358 kPa	999.1
24392 kPa	999.2
24426 kPa	999.3
24468 kPa	999.3
24502 kPa	999.3
24543 kPa	999.3
24578 kPa	999.3
24613 kPa	999.2
24655 kPa	999.4
24726 kPa	999.4
24769 kPa	999.4
24841 kPa	999.4
24878 kPa	999.5
24921 kPa	999.5
24958 kPa	999.4
24994 kPa	999.5
25038 kPa	999.6
25075 kPa	999.6
25112 kPa	999.6
25155 kPa	999.5
25192 kPa	999.6
25230 kPa	999.6
25277 kPa	999.6
25314 kPa	999.6
25352 kPa	999.6
25389 kPa	999.7
25427 kPa	999.8
25472 kPa	999.8
25511 kPa	999.8
25549 kPa	999.8
25595 kPa	999.7
25633 kPa	999.9
25672 kPa	999.8
25718 kPa	1000
25758 kPa	1000
25799 kPa	999.9
25839 kPa	999.8
25886 kPa	999.9
25918 kPa	1000.1
26265 kPa	1000.1
26414 kPa	1000.4
26496 kPa	1000.3
26525 kPa	1000.3
26556 kPa	1000.2
26581 kPa	1000.3
26612 kPa	1000.3
26638 kPa	1000.3
26665 kPa	1000.4
26696 kPa	1000.4
26722 kPa	1000.4
26776 kPa	1000.3
26950 kPa	1000.5
27004 kPa	1000.4
27030 kPa	1000.6
27063 kPa	1000.7
27090 kPa	1000.6
27291 kPa	1000.7
27380 kPa	1000.7
27414 kPa	1000.6
27442 kPa	1000.8
27476 kPa	1000.8
27506 kPa	1000.7
27536 kPa	1000.8
27566 kPa	1000.9
27704 kPa	1000.9
27724 kPa	1000.9
27744 kPa	1000.9
27768 kPa	1000.9
27787 kPa	1001
27808 kPa	1000.9
27832 kPa	1000.9
27851 kPa	1001
27872 kPa	1001
27980 kPa	1001
28001 kPa	1001
